pKi: −log10 of the molar value.
Key:
[1] = target: 5-hydroxytryptamine 1D receptor (Bos taurus, UniProt Q8MI13)
[2] = target: 5-hydroxytryptamine receptor 1B (Bos mutus, UniProt L8IGV0)
[3] = target: 5-hydroxytryptamine receptor 2A (Bos taurus, UniProt Q75Z89)
[4] = target: 5-hydroxytryptamine receptor 2B (Bos taurus, UniProt Q8MI09)
Beta-arrestin-2 = Beta-arrestin-2 (Bos taurus, UniProt P32120)
[5] = target: 5-hydroxytryptamine receptor 3A (Bos taurus, UniProt F1N4Y2)
[6] = target: 5-hydroxytryptamine receptor 5A (Bos mutus, UniProt L8HQU1)
[7] = target: 5-hydroxytryptamine receptor 6 (Bos mutus, UniProt L8HST4)
Chain of 5-hydroxytryptamine receptor 6 (L8HST4 whole entry): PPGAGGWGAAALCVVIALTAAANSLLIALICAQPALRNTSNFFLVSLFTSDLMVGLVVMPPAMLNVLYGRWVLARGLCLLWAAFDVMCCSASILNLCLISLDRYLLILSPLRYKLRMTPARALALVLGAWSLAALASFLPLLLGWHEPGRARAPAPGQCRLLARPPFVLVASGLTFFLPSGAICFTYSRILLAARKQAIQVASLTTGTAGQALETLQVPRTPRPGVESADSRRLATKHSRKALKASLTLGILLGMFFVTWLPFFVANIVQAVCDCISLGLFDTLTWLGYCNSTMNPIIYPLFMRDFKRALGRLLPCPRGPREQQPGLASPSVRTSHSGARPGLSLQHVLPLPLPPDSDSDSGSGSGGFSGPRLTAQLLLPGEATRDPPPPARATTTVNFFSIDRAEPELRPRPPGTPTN

[8] = target: 5-hydroxytryptamine receptor 7 (Bos mutus, UniProt L8II28)
[9] = target: Solute carrier family 22 member 1 (Bos taurus, UniProt A7MBE0)
Chain of Solute carrier family 22 member 1 (A7MBE0 whole entry): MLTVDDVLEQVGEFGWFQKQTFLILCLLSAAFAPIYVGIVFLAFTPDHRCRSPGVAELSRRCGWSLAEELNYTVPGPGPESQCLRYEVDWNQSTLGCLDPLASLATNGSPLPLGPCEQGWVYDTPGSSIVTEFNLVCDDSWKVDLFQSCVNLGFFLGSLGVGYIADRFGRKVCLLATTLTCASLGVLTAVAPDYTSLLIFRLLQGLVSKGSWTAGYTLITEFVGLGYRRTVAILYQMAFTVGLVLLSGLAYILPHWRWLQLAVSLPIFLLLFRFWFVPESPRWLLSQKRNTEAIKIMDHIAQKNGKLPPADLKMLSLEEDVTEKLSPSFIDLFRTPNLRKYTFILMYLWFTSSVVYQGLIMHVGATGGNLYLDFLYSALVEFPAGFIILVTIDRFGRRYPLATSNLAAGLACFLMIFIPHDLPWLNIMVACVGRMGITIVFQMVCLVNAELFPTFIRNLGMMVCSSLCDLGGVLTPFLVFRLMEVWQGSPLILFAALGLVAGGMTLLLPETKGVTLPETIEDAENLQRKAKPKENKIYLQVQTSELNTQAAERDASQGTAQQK

[10] = target: Beta-2 adrenergic receptor (Bos taurus, UniProt Q28044)
[11] = target: Voltage-dependent L-type calcium channel subunit beta-2 (Bos taurus, UniProt Q9MZL5)
Cannabinoid receptor 2 = Cannabinoid receptor 2 (Bos taurus, UniProt E1B9P2)
Chain of Cannabinoid receptor 2 (E1B9P2 whole entry): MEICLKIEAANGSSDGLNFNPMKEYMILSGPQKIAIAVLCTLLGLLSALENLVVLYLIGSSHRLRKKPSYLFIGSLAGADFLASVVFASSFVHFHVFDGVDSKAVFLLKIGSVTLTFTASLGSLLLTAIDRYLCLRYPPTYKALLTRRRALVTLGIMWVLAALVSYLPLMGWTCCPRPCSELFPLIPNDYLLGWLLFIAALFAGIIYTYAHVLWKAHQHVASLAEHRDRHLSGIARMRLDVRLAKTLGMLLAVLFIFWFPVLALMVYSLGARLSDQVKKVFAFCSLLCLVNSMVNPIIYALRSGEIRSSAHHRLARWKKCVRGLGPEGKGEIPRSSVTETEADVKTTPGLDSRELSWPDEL

[12] = target: Muscarinic acetylcholine receptor M2 (Bos taurus, UniProt P41985)
D(1A) dopamine receptor = D(1A) dopamine receptor (Bos taurus, UniProt Q95136)
Chain of D(1A) dopamine receptor (Q95136 whole entry): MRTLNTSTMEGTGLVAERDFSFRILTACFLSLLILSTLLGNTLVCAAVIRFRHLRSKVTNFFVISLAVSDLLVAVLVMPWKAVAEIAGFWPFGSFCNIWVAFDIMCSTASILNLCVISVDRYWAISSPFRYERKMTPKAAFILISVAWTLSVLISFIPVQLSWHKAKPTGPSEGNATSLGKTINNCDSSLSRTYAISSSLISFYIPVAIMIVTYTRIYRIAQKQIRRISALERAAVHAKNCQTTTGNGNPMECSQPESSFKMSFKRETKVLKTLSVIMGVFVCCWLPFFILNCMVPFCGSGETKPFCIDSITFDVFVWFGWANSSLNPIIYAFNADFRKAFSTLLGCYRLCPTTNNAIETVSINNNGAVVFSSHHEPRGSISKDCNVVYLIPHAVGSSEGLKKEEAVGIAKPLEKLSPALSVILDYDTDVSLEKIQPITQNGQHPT

D(2) dopamine receptor = D(2) dopamine receptor (Bos taurus, UniProt P20288)
Dopamine receptor D4 = Dopamine receptor D4 (Bos taurus, UniProt Q8WNT0)
[13] = target: Sodium-dependent dopamine transporter (Bos taurus, UniProt P27922)
[14] = target: 4-aminobutyrate aminotransferase, mitochondrial (Bos taurus, UniProt Q9BGI0)
[15] = target: Gamma-aminobutyric acid receptor subunit alpha-1 (Bos taurus, UniProt P08219)
Chain of Gamma-aminobutyric acid receptor subunit alpha-1 (P08219 whole entry): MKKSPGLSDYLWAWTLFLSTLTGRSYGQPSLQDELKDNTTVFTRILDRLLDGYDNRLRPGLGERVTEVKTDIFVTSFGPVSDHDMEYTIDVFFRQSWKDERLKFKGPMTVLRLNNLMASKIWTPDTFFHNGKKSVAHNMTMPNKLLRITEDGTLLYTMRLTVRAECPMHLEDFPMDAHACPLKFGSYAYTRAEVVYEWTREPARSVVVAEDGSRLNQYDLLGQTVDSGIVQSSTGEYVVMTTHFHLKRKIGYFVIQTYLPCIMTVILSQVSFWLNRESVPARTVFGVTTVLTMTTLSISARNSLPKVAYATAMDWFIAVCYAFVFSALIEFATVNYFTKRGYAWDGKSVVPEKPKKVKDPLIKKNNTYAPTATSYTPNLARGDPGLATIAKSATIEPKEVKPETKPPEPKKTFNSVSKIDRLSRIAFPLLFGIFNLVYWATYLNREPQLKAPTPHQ

Glutamate receptor [16] = target: Glutamate receptor (Bos taurus, UniProt E1BGZ0)
Glutamate receptor [17] = target: Glutamate receptor (Bos taurus, UniProt A4FV91)
Chain of Glutamate receptor (Bos taurus, UniProt A4FV91) (A4FV91 whole entry): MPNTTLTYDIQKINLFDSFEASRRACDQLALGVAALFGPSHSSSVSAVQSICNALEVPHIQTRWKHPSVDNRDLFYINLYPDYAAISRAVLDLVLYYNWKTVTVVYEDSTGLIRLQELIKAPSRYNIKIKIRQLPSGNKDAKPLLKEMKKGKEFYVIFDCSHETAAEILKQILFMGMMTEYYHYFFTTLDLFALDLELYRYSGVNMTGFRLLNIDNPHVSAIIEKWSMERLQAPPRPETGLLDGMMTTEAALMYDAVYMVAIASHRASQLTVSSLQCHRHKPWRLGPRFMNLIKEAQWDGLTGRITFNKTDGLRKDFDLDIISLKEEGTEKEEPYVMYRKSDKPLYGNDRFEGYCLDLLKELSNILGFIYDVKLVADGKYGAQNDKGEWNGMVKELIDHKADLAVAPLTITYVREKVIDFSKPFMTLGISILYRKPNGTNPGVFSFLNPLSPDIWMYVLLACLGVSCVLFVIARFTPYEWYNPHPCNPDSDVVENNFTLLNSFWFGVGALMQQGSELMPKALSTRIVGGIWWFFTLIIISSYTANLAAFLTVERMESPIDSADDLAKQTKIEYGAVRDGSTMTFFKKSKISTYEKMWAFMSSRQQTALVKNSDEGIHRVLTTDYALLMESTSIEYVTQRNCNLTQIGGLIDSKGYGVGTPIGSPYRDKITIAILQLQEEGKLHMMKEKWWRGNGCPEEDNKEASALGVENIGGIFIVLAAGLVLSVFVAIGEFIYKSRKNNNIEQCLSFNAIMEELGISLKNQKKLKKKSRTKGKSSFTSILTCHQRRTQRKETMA

[18] = target: Potassium voltage-gated channel subfamily H member 2 (Bos taurus, UniProt A5PKI1)
Histamine H1 receptor = Histamine H1 receptor (Bos taurus, UniProt A5D795)
Histamine H2 receptor = Histamine H2 receptor (Bos mutus, UniProt L8IRW0)
Histamine receptor H3 = Histamine receptor H3 (Bos taurus, UniProt F1MML8)
Nischarin = Nischarin (Bos mutus, UniProt L8IEU8)
[19] = target: Multidrug resistance protein 1 (Bos taurus, UniProt Q65A17)
Beta-arrestin-1 = Beta-arrestin-1 (Bos taurus, UniProt P17870)
Neuromedin-K receptor = Neuromedin-K receptor (Bos mutus, UniProt L8IYF9)
Chain of Neuromedin-K receptor (L8IYF9 whole entry): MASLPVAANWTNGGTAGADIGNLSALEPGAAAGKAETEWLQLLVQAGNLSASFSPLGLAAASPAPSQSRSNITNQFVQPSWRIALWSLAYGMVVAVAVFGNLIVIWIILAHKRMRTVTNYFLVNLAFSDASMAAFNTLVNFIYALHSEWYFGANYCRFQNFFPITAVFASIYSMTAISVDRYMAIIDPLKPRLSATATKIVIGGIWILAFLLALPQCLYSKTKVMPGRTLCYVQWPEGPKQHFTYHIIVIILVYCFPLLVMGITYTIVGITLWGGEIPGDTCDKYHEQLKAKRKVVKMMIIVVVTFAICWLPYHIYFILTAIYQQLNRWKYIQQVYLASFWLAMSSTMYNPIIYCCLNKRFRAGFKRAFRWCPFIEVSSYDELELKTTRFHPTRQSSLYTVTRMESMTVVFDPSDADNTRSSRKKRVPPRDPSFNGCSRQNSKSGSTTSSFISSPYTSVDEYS

Protein lifeguard 1 = Protein lifeguard 1 (Bos taurus, UniProt Q32L53)
[20] = target: Sodium-dependent noradrenaline transporter (Bos taurus, UniProt P51143)
[21] = target: Kappa-type opioid receptor (Bos taurus, UniProt Q2KIP6)
Mu-type opioid receptor = Mu-type opioid receptor (Bos taurus, UniProt P79350)
Thromboxane-A synthase = Thromboxane-A synthase (Bos taurus, UniProt Q2KIG5)
Vasopressin V1a receptor = Vasopressin V1a receptor (Bos taurus, UniProt A2VDS9)
Vasopressin V1b receptor = Vasopressin V1b receptor (Bos taurus, UniProt F1ME85)
Vasopressin V2 receptor = Vasopressin V2 receptor (Bos taurus, UniProt P48044)
Chain of Vasopressin V2 receptor (P48044 whole entry): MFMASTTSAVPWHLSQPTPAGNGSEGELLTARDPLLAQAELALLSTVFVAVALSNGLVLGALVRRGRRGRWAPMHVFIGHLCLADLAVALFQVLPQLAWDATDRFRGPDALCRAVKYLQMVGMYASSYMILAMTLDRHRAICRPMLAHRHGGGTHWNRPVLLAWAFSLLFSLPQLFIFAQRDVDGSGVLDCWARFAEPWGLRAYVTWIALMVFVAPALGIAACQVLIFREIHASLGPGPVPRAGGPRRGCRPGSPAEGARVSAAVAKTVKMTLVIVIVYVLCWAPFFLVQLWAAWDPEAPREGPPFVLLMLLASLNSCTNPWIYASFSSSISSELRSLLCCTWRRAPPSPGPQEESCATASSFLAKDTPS

[22] = target: Vesicle amine transport protein 1 homolog (T. californica)-like (Bos taurus, UniProt Q29RL6)
Chain of Vesicle amine transport protein 1 homolog (T. californica)-like (Q29RL6 whole entry): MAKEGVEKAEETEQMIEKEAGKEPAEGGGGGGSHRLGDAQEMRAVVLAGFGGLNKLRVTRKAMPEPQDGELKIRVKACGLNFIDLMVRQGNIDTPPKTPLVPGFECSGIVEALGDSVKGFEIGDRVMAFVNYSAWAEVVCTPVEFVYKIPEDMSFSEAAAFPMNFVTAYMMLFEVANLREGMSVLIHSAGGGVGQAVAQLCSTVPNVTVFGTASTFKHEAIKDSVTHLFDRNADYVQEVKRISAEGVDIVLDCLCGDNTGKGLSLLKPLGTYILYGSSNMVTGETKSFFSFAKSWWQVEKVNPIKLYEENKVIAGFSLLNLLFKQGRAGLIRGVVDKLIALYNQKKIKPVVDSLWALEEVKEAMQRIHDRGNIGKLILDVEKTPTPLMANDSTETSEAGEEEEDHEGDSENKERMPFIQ

Substance-K receptor = Substance-K receptor (Bos taurus, UniProt P05363)

Chain of 5-hydroxytryptamine receptor 2A (Q75Z89 whole entry): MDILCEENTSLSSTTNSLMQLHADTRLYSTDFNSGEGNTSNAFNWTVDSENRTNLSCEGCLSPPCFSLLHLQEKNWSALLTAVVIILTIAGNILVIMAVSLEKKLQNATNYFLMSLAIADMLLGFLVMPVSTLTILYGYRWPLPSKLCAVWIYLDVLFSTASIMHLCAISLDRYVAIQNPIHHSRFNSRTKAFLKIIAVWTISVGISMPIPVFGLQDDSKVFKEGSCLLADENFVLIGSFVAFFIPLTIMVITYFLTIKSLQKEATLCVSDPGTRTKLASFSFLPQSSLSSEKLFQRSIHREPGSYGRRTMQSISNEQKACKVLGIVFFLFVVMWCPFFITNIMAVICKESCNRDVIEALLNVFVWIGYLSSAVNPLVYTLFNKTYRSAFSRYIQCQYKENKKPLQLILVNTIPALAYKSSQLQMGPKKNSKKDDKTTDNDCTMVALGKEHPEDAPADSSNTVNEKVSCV
Chain of 5-hydroxytryptamine receptor 2B (Q8MI09 whole entry): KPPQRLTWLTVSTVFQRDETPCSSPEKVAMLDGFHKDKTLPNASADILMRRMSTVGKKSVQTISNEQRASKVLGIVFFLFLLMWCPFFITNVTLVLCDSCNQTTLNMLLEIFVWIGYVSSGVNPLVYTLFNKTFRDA

pKi [1]: 7.05
pKi [2]: 6.19
pKi [3]: 5.30
pKi [4]: 7.13
pKi (Beta-arrestin-2): < 5.00
pKi [5]: < 5.00
pKi [6]: < 5.00
pKi [7]: < 5.00
pKi [8]: 7.89
pKi [9]: 8.17
pKi [10]: < 5.00
pKi [11]: < 5.00
pKi (Cannabinoid receptor 2): < 5.00
pKi [12]: < 5.00
pKi (D(1A) dopamine receptor): < 5.00
pKi (D(2) dopamine receptor): < 5.00
pKi (Dopamine receptor D4): 7.66
pKi [13]: < 5.00
pKi [14]: < 5.00
pKi [15]: < 5.00
pKi (Glutamate receptor [16]): < 5.00
pKi (Glutamate receptor [17]): < 5.00
pKi [18]: < 5.00
pKi (Histamine H1 receptor): 5.99
pKi (Histamine H2 receptor): 5.67
pKi (Histamine receptor H3): < 5.00
pKi (Nischarin): < 5.00
pKi [19]: < 5.00
pKi (Beta-arrestin-1): < 5.00
pKi (Neuromedin-K receptor): < 5.00
pKi (Protein lifeguard 1): < 5.00
pKi [20]: < 5.00
pKi [21]: < 5.00
pKi (Mu-type opioid receptor): < 5.00
pKi (Thromboxane-A synthase): < 5.00
pKi (Vasopressin V1a receptor): < 5.00
pKi (Vasopressin V1b receptor): < 5.00
pKi (Vasopressin V2 receptor): < 5.00
pKi [22]: < 5.00
pKi (Substance-K receptor): < 5.00
SMILES: COc1ccccc1N1CCN(CCCCn2ncc(=O)n(C)c2=O)CC1 [NSC_11603174]

Reference: BindingDB's records for doi:10.1007/s00259-006-0324-y (Columbia University, 2007)
